The values that follow come from PubChem BioAssay AID212 (DTP/NCI, 2004).

The subject of the assay is BDF1 mice, colon carcinoma 38 sc, T/C %. In words: NCI In Vivo Anticancer Drug Screen. Data for tumor model Colon Carcinoma 38 (subcutaneous) in B6D2F1 (BDF1) mice. Conditions: endpoint: median tumor weight (est.), higher = larger tumour. The gist of the method:
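Compound antitumor activity was assessed in mice carrying transplantable tumors. Survival or tumor size was recorded, and each value is the treated-group measurement divided by that of the vehicle-treated control group.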

Setting [1] is: dose: 12.5 mg/kg/injection, schedule: Q07DX002 (ip), vehicle: Klucel (hydroxypropylcellulose) (HPC).
Where [2] appears, read: dose: 25.0 mg/kg/injection, schedule: Q07DX002 (ip), vehicle: Klucel (hydroxypropylcellulose) (HPC).
Setting [3] is: dose: 50.0 mg/kg/injection, schedule: Q07DX002 (ip), vehicle: Klucel (hydroxypropylcellulose) (HPC).
Where [4] appears, read: dose: 100.0 mg/kg/injection, schedule: Q07DX002 (ip), vehicle: Klucel (hydroxypropylcellulose) (HPC).
Where [5] appears, read: dose: 200.0 mg/kg/injection, schedule: Q07DX002 (ip), vehicle: Klucel (hydroxypropylcellulose) (HPC).
[6] abbreviates: dose: 400.0 mg/kg/injection, schedule: Q07DX002 (ip), vehicle: Klucel (hydroxypropylcellulose) (HPC).
Setting [7] is: dose: 50.0 mg/kg/injection, schedule: Q07DX002 (ip), vehicle: saline.
Setting [8] is: dose: 100.0 mg/kg/injection, schedule: Q07DX002 (ip), vehicle: saline.
Setting [9] is: dose: 200.0 mg/kg/injection, schedule: Q07DX002 (ip), vehicle: saline.
[10] abbreviates: dose: 800.0 mg/kg/injection, schedule: Q07DX002 (ip), vehicle: saline.
Where [11] appears, read: dose: 1600.0 mg/kg/injection, schedule: Q07DX002 (ip), vehicle: saline.
Setting [12] is: dose: 25.0 mg/kg/injection, schedule: Q07DX002 (ip), vehicle: saline.

Molecules are shown by their SMILES. Several values for one entry are separate records, joined by “and”; a condition that tells them apart may be missing. Equal values may be shown once. Inconclusive results are not listed.

Take `COC1C(CO)OC(n2cnc3c(=S)nc(N)[nH]c32)C1O` (stereo not given): the T/C is, setting by setting: under setting [1], 98 % of control; under setting [2], 74 % of control; under setting [3], 44 % of control; under setting [4], 118 % of control; under setting [5], 69 % of control; under setting [6], 44 % of control.

As to `Clc1ccc(C2SC=Cc3ccccc32)cc1` (stereo not given), the T/C is, setting by setting: under setting [3], 56 % of control; under setting [4], 47 % of control; under setting [5], 57 % of control; under setting [6], 93 % of control.

As for `CCCCCC[C@@H](O)C/C=C\CCCCCCCC(=O)OCCO`, the T/C under setting [7] is 113 % of control; the T/C under setting [8] was 72 % of control; the T/C under setting [9] is 113 % of control; the T/C (dose: 400.0 mg/kg/injection, schedule: Q07DX002 (ip), vehicle: saline) is 117 % of control; the T/C under setting [10] was 74 % of control; the T/C under setting [11] is 85 % of control.

Consider `O=S(=O)(O)O`, for which the T/C reads like this: under setting [2], 110 % of control; under setting [3], 103 % of control; under setting [4], 78 % of control; under setting [5], 112 % of control.

With `CCc1ncnc2cc(OCC3CO3)c(OC)cc12` (stereo not given), the T/C reads like this: under setting [12], 93 % of control; under setting [7], 47 % of control.

`C=C1C(C)C2C(Cc3ccccc3)NC(=O)C23C(OC(C)=O)C=CC(C)(O)C(=O)C(C)C/C=C/C3C1O` (stereo not given): the T/C is 93 % of control (dose: 0.31 mg/kg/injection, schedule: Q07DX003 (ip), vehicle: Klucel (hydroxypropylcellulose) (HPC)); 53 % of control (dose: 0.62 mg/kg/injection, schedule: Q07DX003 (ip), vehicle: Klucel (hydroxypropylcellulose) (HPC)); 72 % of control (dose: 1.25 mg/kg/injection, schedule: Q07DX003 (ip), vehicle: Klucel (hydroxypropylcellulose) (HPC)); 100 % of control (dose: 2.5 mg/kg/injection, schedule: Q07DX003 (ip), vehicle: Klucel (hydroxypropylcellulose) (HPC)); 84 % of control (dose: 5.0 mg/kg/injection, schedule: Q07DX003 (ip), vehicle: Klucel (hydroxypropylcellulose) (HPC)); 105 % of control (dose: 10.0 mg/kg/injection, schedule: Q07DX003 (ip), vehicle: Klucel (hydroxypropylcellulose) (HPC)).

For the compound `COc1cc(C[C@H]2c3cc(OC)c(OC)cc3CCN2C)c(Oc2cc3c(cc2OC)-c2c(OC)c(OC)cc4c2[C@H](C3)N(C)CC4)cc1OC`, the T/C is 59 % of control (dose: 25.0 mg/kg/injection, schedule: Q01DX005 (ip), vehicle: saline); 116 % of control (dose: 25.0 mg/kg/injection, schedule: Q04DX003 (ip), vehicle: saline); 198 % of control (dose: 50.0 mg/kg/injection, schedule: Q01DX005 (ip), vehicle: saline); 60 % of control (dose: 50.0 mg/kg/injection, schedule: Q04DX003 (ip), vehicle: saline); 64 % of control (dose: 100.0 mg/kg/injection, schedule: Q01DX005 (ip), vehicle: saline); 76 % of control (dose: 100.0 mg/kg/injection, schedule: Q04DX003 (ip), vehicle: saline). Further, the T/C (dose: 200.0 mg/kg/injection, schedule: Q01DX005 (ip), vehicle: saline) is 36 % of control.

`C[N+](C)(C)c1ncnc2nc[nH]c12`: the T/C is 83 % of control under setting [12]; 77 % of control and 98 % of control under setting [7]; 96 % of control and 100 % of control under setting [8]; 75 % of control and 85 % of control under setting [9].

Take `Nc1ncnc2c1ncn2C1C=C(CO)C(O)C1O` (stereo not given): the T/C reads like this: (dose: 1.0 mg/kg/injection, schedule: Q07DX002 (ip), vehicle: saline) 74 % of control and 84 % of control; (dose: 2.0 mg/kg/injection, schedule: Q07DX002 (ip), vehicle: saline) 93 % of control; (dose: 8.0 mg/kg/injection, schedule: Q07DX002 (ip), vehicle: saline) 107 % of control.

On to `Cc1cc(O)c(O)c(Oc2cc(C)cc(O)c2O)c1`, for which the T/C was 96 % of control (dose: 0.35 mg/kg/injection, schedule: Q07DX002 (ip), vehicle: saline); 78 % of control (dose: 0.7 mg/kg/injection, schedule: Q07DX002 (ip), vehicle: saline); 77 % of control (dose: 1.4 mg/kg/injection, schedule: Q07DX002 (ip), vehicle: saline).

As for `CCCC(=O)O`, the T/C was 121 % of control under setting [12], 105 % of control under setting [7] and 99 % of control under setting [9].

`Cc1ccc(S(=O)(=O)NC(=O)C2C(=O)CC3(CCCCC3)CC2=O)cc1`: the T/C under setting [3] was 104 % of control, the T/C under setting [4] is 112 % of control, the T/C under setting [5] is 95 % of control and the T/C under setting [6] was 102 % of control.

As for `CC1CCC(n2cnc3c(Cl)ncnc32)O1` (stereo not given), the T/C by setting is: under setting [1], 76 % of control; under setting [3], 78 % of control and 100 % of control; (dose: 62.0 mg/kg/injection, schedule: Q07DX002 (ip), vehicle: Klucel (hydroxypropylcellulose) (HPC)) 87 % of control; under setting [4], 86 % of control and 95 % of control; (dose: 125.0 mg/kg/injection, schedule: Q07DX002 (ip), vehicle: Klucel (hydroxypropylcellulose) (HPC)) 115 % of control; under setting [5], 109 % of control and 95 % of control. Under “dose: 250.0 mg/kg/injection, schedule: Q07DX002 (ip), vehicle: Klucel (hydroxypropylcellulose) (HPC)”, the T/C was 56 % of control.

In the case of `O=c1[nH]c(=O)n(C2CC(O)C(CO)O2)cc1C(F)(F)F` (stereo not given), the T/C reads like this: (dose: 10.0 mg/kg/injection, schedule: Q07DX002 (ip), vehicle: saline) 83 % of control; (dose: 20.0 mg/kg/injection, schedule: Q07DX002 (ip), vehicle: saline) 77 % of control; (dose: 50.0 mg/kg/injection, schedule: Q07DX002 (ip), vehicle: saline with Tween-80) 100 % of control; under setting [7], 114 % of control; (dose: 100.0 mg/kg/injection, schedule: Q07DX002 (ip), vehicle: saline with Tween-80) 117 % of control; under setting [8], 84 % of control. Moreover, the T/C is, setting by setting: (dose: 160.0 mg/kg/injection, schedule: Q07DX002 (ip), vehicle: saline) 118 % of control; (dose: 200.0 mg/kg/injection, schedule: Q07DX002 (ip), vehicle: saline with Tween-80) 101 % of control; under setting [9], 95 % of control; (dose: 320.0 mg/kg/injection, schedule: Q07DX002 (ip), vehicle: saline) 156 % of control; (dose: 400.0 mg/kg/injection, schedule: Q07DX002 (ip), vehicle: saline with Tween-80) 94 % of control; (dose: 800.0 mg/kg/injection, schedule: Q07DX002 (ip), vehicle: saline with Tween-80) 105 % of control. Besides, the T/C is, setting by setting: under setting [10], 90 % of control; (dose: 1600.0 mg/kg/injection, schedule: Q07DX002 (ip), vehicle: saline with Tween-80) 108 % of control; under setting [11], 41 % of control.

For `O=c1cc[nH]c(=O)o1`, the T/C by setting is: (dose: 12.2 mg/kg/injection, schedule: Q01DX009 (ip), vehicle: water) 119 % of control; (dose: 18.5 mg/kg/injection, schedule: Q01DX009 (ip), vehicle: water) 75 % of control; (dose: 28.0 mg/kg/injection, schedule: Q01DX009 (ip), vehicle: water) 83 % of control.

For the compound `CCN(CC)CC[n+]1ccc2c(C)c3[nH]c4ccc(O)cc4c3c(C)c2c1`, the T/C was 38 % of control (dose: 3.12 mg/kg/injection, schedule: Q07DX002 (ip), vehicle: saline); 82 % of control (dose: 3.12 mg/kg/injection, schedule: Q07DX002 (ip), vehicle: suspension in saline); 103 % of control (dose: 6.25 mg/kg/injection, schedule: Q07DX002 (ip), vehicle: suspension in saline); 98 % of control (dose: 12.5 mg/kg/injection, schedule: Q07DX002 (ip), vehicle: suspension in saline); 15 % of control and 29 % of control under setting [12]; 57 % of control (dose: 25.0 mg/kg/injection, schedule: Q07DX002 (ip), vehicle: suspension in saline). Moreover, the T/C is 5 % of control under setting [7] and 22 % of control (dose: 50.0 mg/kg/injection, schedule: Q07DX002 (ip), vehicle: suspension in saline).
